Consider eleven compounds from patent publication US8383816B2, “Aryl-quinolyl compounds and their use” (Cancer Research Technology Limited, priority 2008, dated 2013).

One assay has as its target B-RAF (Homo sapiens, UniProt P15056, V600E). Kind of assay: DELFIA Kinase Assay. The class given is biochemical. The conditions noted are these: 100 μM ATP. The method, then:
Biological Methods—DELFIA Kinase Assay
Compounds were assessed by a kinase assay performed according to the following protocol.
DELFIA Kinase Buffer (DKB):
DKB1 (DKB with B-RAF and MEK Protein):
Combine 4950 μL of DKB and 50 μL of 2.5 mg/ml GST-MEK stock (to give […] of MEK per 40 μL). Then add 22.5 μL of B-RAF to give ˜0.2 μL of B-RAF per 40 μL.
DKB2 (DKB with MEK Protein):
Combine 4950 μL of DKB and 50 μL of 2.5 mg/ml GST-MEK stock (to give 1 mg of MEK per 40 μL). Use 500 μL of this for the blow out (BO) and the empty vector (EV) control.
100 mM stock, dilute to 500 μM to give 100 μM final concentration in assay.
Inhibitors (Test Compounds):
Phospho-MEK½ CST #9121S diluted 1:1000 in DELFIA assay buffer (AB). Preincubate antibody in the AB for 30 minutes at room temperature prior to use.
Anti-rabbit-Eur labelled secondary Perkin Elmer #AD0105 diluted 1:1000 in DELFIA assay buffer (AB). Preincubate antibody in the AB for 30 minutes at room temperature prior to use. (Primary and secondary antibodies were incubated together.)
1. Preblock wells with 5% milk in TBS for 1 hour.
2. Wash wells with 3× with 200 μL TBS.
3. Plate out 40 μL of DKB1 for all inhibitors (test compounds), DMSO control, and optionally other control compounds.
4. Plate out 40 μL of DKB2 for BO and EV wells.
5. Add inhibitors (test compounds) at 0.5 μL per well according to desired plate layout.
6. Add 0.5 μL DMSO to vehicle control wells.
7. Add 2 μL of B-RAF to BO and EV wells.
8. Pre-incubate with inhibitors (test compounds) for 10 minutes at room temperature with shaking.
9. Add 10 μL of 500 μM ATP stock, in DKB, to give 100 μM assay concentration.
10. Seal plates with TopSeal and incubate at room temperature with shaking for 45 minutes.
11. Wash plates 3× with 200 μL 0.1% Tween20/Water to terminate reaction.
12. Add 50 μL per well of antibody mix and incubate for 1 hour at room temperature with shaking.
13. Wash plates 3× with 200 μL 0.1% Tween20/Water.
14. Add 100 μL DELFIA enhancement solution per well, cover in foil, and incubate at room temperature for 30 minutes with shaking.
15. Read on Victor using Europium protocol.
(§1) Values for the blank (Empty Vector) are subtracted from all values. The DMSO controls are set as 100% activity and assay points (the response) are calculated as a percentage of the DMSO control. Data are plotted using Graphpad Prism software and a non-linear regression line is calculated using a variable slope sigmoidal dose-response equation (Y=Bottom+(Top−Bottom)/(1+10^((LogEC50−X)*HillSlope)) where X is the logarithm of concentration. Y is the response). The IC50 generated by this procedure is the concentration of the drug that produces a percentage control fluorescence value midway between the saturation, and zero-effect plateaus. Three independent assays are usually performed and the mean IC50 is reported.

In a further assay the test system is WM266.4 melanoma cells. The assay can be described thus: SRB Cell Proliferation Assay (SRB GI50). The class given is cell-based. The conditions noted are these: Homo sapiens, WM 266-4, 144 h, 6 days growth. The method, then: Biological Methods—SRB Cell Proliferation Assay (SRB GI50)
Cultures of WM266.4 melanoma cells are routinely cultured in DMEM/10% foetal bovine serum, at 37° C., in 5% CO2 water saturated atmosphere. Cultures are maintained in exponential growth phase by sub-culturing before having become confluent (3-5 day intervals). Single cell suspensions are prepared by harvesting an 80 cm^2 tissue culture flask with 5 mL commercial trypsin EDTA. After 5 minutes, the detached cells are mixed with 5 mL fully complemented culture medium and centrifugally pelleted (1000 rpm for 7 minutes). After aspirating the supernatant, the cell pellet is re-suspended in 10 mL fresh medium and the cells fully disaggregated by drawing the whole volume up/down 5 times through a 19-gauge needle. The concentration of the cells is determined using a haemocytometer (1/10 dilution). A suitable volume to give at least a 2-fold excess for the number of tests being conducted, typically 100-200 mL, is prepared by diluting the cell suspension to 10,000/mL, and 100 μL/well dispensed into 96 well plates using a programmable 8-channel peristaltic pump, giving 1000 cells/well, leaving column 12 blank. The plates are returned to the incubator for 24 hours to allow the cells to re-attach.
The compounds being tested are prepared at 20 mM in dimethylsulphoxide. Aliquots (200 μL) are diluted into 20 mL culture medium giving 200 μM, and 10 serial dilutions of 3× performed by transferring 5 mL to 10 mL. Aliquots (100 μL) of each dilution are added to the wells, using an 8-channel pipettor, thus performing a final further 2× dilution, and giving doses ranging from 100 μM to 0.005 μM. Column 11 receives plain culture medium only. Each compound is tested in quadruplicate, each replicate being the average of four wells, and two plates per compound.
After a further 6 days growth, the plates are emptied, and the cells are fixed in 10% trichloroacteic acid for 10 minutes on ice. After thorough rinsing in running tap water, the plates are dried, and stained by adding 50 μL of a solution of 0.1% sulphorhodamine-B in 1% acetic acid, for 10 minutes at room temperature. The stain is poured out and the plates thoroughly rinsed under a stream of 1% acetic acid, thus removing unbound stain, and dried. The bound stain is taken into solution by addition of 150 μL Tris buffer pH 8, followed by 10 minutes on a plate-shaker (approximately 500 rpm). The absorbance at 540 nm in each well (being proportional to the number of cells present) is determined using a plate reader.
After averaging the results in rows A-D and E-H, the blank value (row 12) is subtracted, and results expressed as percentage of the untreated value (row 11). […] The GI50 generated by this procedure is the concentration of the drug that produces a percentage control A540 midway between the saturation, and zero-effect plateaus.

The next assay relates to pERK. Kind of assay: Cell Based Phospho-ERK Assay. The conditions noted are these: 6 h, cells incubated with test compound for 6 hours. The method, then:
Biological Methods—Cell Based Phosho-ERK Assay
Compounds were assessed using a cell-based assay which was performed according to the following protocol.
Plate out 16,000 cells/well in 99 μL medium in a 96-well plate.
1. Add 1 μL inhibitor to the cells […].
2. Incubate the cells with test compound for 6 hours at 37° C.
3. Aspirate off the solution from all of the wells.
4. Fixate the cells with 100 μL 4% formaldehyde/0.25% Triton X-100 PBS per well.
5. Incubate the plate for 1 hour at 4° C.
6. Aspirate off the fixing solution and add 300 μL TBS per well.
7. Leave the plate overnight at 4° C.
1. Wash the plate 2× with 200 μL PBS per well.
2. Block with 100 μL 5% dried milk in TBS.
3. Incubate the plate for 20 minutes at 37° C.
4. Wash the plate 2× with 0.1% tween/H2O.
5. Add 50 μL of 3 μg/mL primary antibody pERK (Sigma M8159), diluted in 5% milk powder/TBS, to each well.
6. Incubate the plate for 2 hours at 37° C.
7. Wash the plate 3× with 0.1% tween/H2O.
8. Add 50 μL of 0.45 μg/mL secondary Europium-labelled anti-mouse antibody (Perkin Elmer) to each well.
9. Incubate the plate for 1 hour at 37° C.
10. Wash the plate 3× with 0.1% tween/H2O.
11. Add 100 μL enhancement solution (Perkin Elmer) to each well.
12. Leave the plate for approximately 10 minutes at room temperature before gently shaking the plate.
13. Read Europium Time Resolved Fluorescence in Victor2.
14. Wash the plate 2× with 0.1% tween/H2O.
15. Measure the protein concentration with BCA (Sigma) by adding 200 μL of solution per well.
16. Incubate the plate for 30 minutes at 37° C.
17. Read absorbance levels at 570 nm in a plate reader.
Note that Europium counts are normalised for protein levels by dividing counts by absorbance.
as §1, with “(no cells)” for “(Empty Vector)”

Chain of B-RAF (P15056 whole entry V600E): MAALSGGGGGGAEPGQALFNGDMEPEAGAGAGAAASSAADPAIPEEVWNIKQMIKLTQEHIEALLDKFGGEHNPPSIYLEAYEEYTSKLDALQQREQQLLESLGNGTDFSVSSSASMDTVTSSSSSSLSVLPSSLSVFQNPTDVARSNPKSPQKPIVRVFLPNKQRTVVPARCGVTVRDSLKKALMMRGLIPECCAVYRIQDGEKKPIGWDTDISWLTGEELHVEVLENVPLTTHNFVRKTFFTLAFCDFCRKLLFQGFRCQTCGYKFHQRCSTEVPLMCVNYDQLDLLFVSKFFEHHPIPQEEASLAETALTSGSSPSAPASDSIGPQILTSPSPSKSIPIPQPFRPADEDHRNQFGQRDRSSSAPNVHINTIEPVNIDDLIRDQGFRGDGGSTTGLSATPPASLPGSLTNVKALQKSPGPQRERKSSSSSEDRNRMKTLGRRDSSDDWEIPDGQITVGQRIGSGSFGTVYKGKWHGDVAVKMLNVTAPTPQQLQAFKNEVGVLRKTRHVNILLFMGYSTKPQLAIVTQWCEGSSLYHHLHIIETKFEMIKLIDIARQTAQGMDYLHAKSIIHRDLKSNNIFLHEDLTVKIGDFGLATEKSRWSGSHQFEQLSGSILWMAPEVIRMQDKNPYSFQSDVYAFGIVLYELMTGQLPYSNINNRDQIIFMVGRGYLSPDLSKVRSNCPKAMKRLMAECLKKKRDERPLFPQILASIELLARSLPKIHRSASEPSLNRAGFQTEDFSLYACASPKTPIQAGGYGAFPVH

In the case of `O=C(Nc1cccc(SC(F)(F)F)c1)Nc1ccc(Oc2ccnc3[nH]c(=O)[nH]c23)c2cccnc12` [AA-009, 4-[(5-Oxy-quinolinyl-8-amino)carbonylamino-(3-trifluoromethylthio-phenyl)]-pyridin-5,6-imidazolone], the figures for the IC50 against B-RAF and in the assay on pERK were at most 1 µM and at most 10 µM, respectively. Moreover, the GI50 (usually the concentration at which growth is held to half of that of the control) in the assay on WM266.4 melanoma cells was at most 10 µM.

`O=C(Nc1cc(C(F)(F)F)ccc1F)Nc1ccc(Oc2ccnc3[nH]c(=O)[nH]c23)c2cccnc12` [AA-010, 4-[(5-Oxy-quinolinyl-8-amino)carbonylamino-(2-fluoro-5-trifluoromethyl-phenyl)]-pyridin-5,6-imidazolone]: the concentration for half-maximal inhibition (IC50) (in general, the concentration at which inhibition is half-maximal) against B-RAF was at most 1 µM; in the assay with pERK, at most 10 µM. Besides, in the assay with WM266.4 melanoma cells, the GI50 was at most 10 µM.

`Cn1c(=O)[nH]c2c(Oc3ccc(NC(=O)Nc4ccc(Cl)c(C(F)(F)F)c4)c4ncccc34)ccnc21` [AA-014, 5-[(8-Amino-quinolinyl-5-oxy)carbonylamino-3-(2-trifluoromethyl-3-chloro-phenyl)]-pyridin-[2,3]-N-methylimidazol-2-one]: the results for the IC50 against B-RAF and in the assay with pERK were at most 1 µM and at most 10 µM, respectively. This compound also registered a GI50 in the assay on WM266.4 melanoma cells of at most 10 µM.

As for `Cn1nc(C(C)(C)C)cc1NC(=O)Nc1ccc(Oc2ccnc3c2[nH]c(=O)n3C)c2cccnc12` [AA-017, 5-[(8-Amino-quinolinyl-5-oxy)carbonylamino-5-(1-methyl-3-t-butyl-imidazolyl)]-pyridin-[2,3]1-N-methylimidazol-2-one], the IC50 against B-RAF was at most 1 µM; in the assay on pERK, at most 10 µM. In addition, the concentration for 50% growth inhibition (GI50) in the assay with WM266.4 melanoma cells was at most 10 µM.

For the compound `Cn1c(=O)[nH]c2c(Oc3ccc(NC(=O)Nc4cccc(C(C)(C)C)c4)c4ncccc34)ccnc21` [AA-018, 5-[(8-Amino-quinolinyl-5-oxy)carbonylamino-3-(t-butyl-phenyl)]-pyridin-[2,3]1-N-methylimidazol-2-one], the results for the IC50 against B-RAF and in the assay with pERK were at most 1 µM and at most 10 µM, respectively. Also, the GI50 with WM266.4 melanoma cells is at most 10 µM.

Regarding `Cc1nc2c(Oc3ccc(NC(=O)Nc4cc(C(F)(F)F)ccc4F)c4ncccc34)ccnc2[nH]c1=O` [BB-001, 5-[(8-Amino-quinolinyl-5-oxy)carbonylamino-(2-fluoro-5-trifloromethylphenyl)]-pyridin-[2,3]-3-methylpyrazin-2-one], the IC50 was at most 1 µM on B-RAF and at most 10 µM in the assay on pERK. Besides, the GI50 in the assay with WM266.4 melanoma cells was at most 10 µM.

On to `Cc1nc2c(Oc3ccc(NC(=O)Nc4cc(C(C)(C)C)nn4-c4ccccc4)c4ncccc34)ccnc2[nH]c1=O` [BB-003, 5-[(8-Amino-quinolinyl-5-oxy)carbonylamino-5-(1-N-p-phenyl-3-t-butyl-imidazolyl)]-pyridin-[2,3]-3-methylpyrazin-2-one], for which the figures for the half-maximal inhibitory concentration (IC50) at B-RAF and in the assay on pERK were at most 1 µM and at most 10 µM, respectively. Moreover, the GI50 in the assay with WM266.4 melanoma cells is at most 10 µM.

In the case of `O=C(Nc1cc(C(F)(F)F)ccc1F)Nc1ccc(Oc2ccnc3ncc(=O)[nH]c23)c2cccnc12` [BB-004, 5-[(8-Amino-quinolinyl-5-oxy)carbonylamino-5-(2-fluoro-5-trifluoromethyl-phenyl)]-pyridin-[2,3]pyrazin-3-one], the IC50 is at most 1 µM at B-RAF and at most 10 µM in the assay with pERK. Also, the 50% growth inhibitory concentration (GI50) with WM266.4 melanoma cells was at most 10 µM.

Consider `O=C(Nc1cc(C(F)(F)F)ccc1F)Nc1ccc(Oc2ccnc3[nH]c(=O)cnc23)c2cccnc12` [BB-005, 5-[(8-Amino-quinolinyl-5-oxy)carbonylamino-5-(2-fluoro-5-trifluoromethyl-phenyl)]-pyridin-[2,3]pyrazin-2-one], for which the IC50 at B-RAF was at most 1 µM; in the assay on pERK, at most 10 µM. Also, the GI50 in the assay on WM266.4 melanoma cells is at most 10 µM.

Take `Cc1nc2c(Oc3ccc(NC(=O)Nc4cc(C(C)(C)C)nn4C)c4ncccc34)ccnc2[nH]c1=O` [BB-006, 5-[(8-Amino-quinolinyl-5-oxy)carbonylamino-5-(1-methyl-3-t-butyl-imidazolyl)]-pyridin-[2,3]-3-methylpyrazin-2-one]: the IC50 on B-RAF was at most 1 µM; with pERK it was at most 10 µM. Besides, in the assay on WM266.4 melanoma cells, the GI50 was at most 10 µM.

For `Cc1ccc(-n2nc(C(C)(C)C)cc2NC(=O)Nc2ccc(Oc3ccnc4[nH]c(=O)cnc34)c3cccnc23)cc1` [BB-007, 5-[(8-Amino-quinolinyl-5-oxy)carbonylamino-5-(1-N-p-tolyl-3-t-butyl-imidazolyl)]-pyridin-[2,3]pyrazin-2-one], the IC50 against B-RAF was at most 1 µM; in the assay on pERK, at most 10 µM. This compound also registered a GI50 with WM266.4 melanoma cells of at most 10 µM.
